Laboratory results taken from patent US11833178B2, “Bifidobacterium longum for treating obesity and weight management” (priority 2017, dated 2023).
Converted amounts (≈) assume the structure as drawn. Like-named read-outs stand apart in the source and are kept apart here.

Tested on: Bifidobacterium longum APC1472
Assay: Antibiotic susceptibility (VetMIC plates, ISO 10932:2010)
Type: cell-based, Bifidobacterium longum ssp. longum
Details: read-out: MICs
Description: Antibiotic susceptibility was tested with […] plates Lact-1 and Lact-2 supplied from SVA (National Veterinary Institute, Uppsala, Sweden). […] MICs were determined as 80% or more reduction in pellet, compared to positive control lane. Borderline cases were interpreted by visual examples from “Methods for Antimicrobial Susceptibility Testing of Anaerobic Bacteria: Approved Standard” (CLSI, 7th edition).

[1] = APC1472, range of MICs for duplicate experiments, 37° C., 48 h

SMILES | MIC [1] | MIC (APC1472, 48 h)
CC1(C)S[C@@H]2[C@H](NC(=O)[C@H](N)c3ccccc3)C(=O)N2[C@H]1C(=O)O [Am, Ampicillin] | 2 µg/mL (≈ 5.72 µM) | 
O=C(N[C@H](CO)[C@H](O)c1ccc([N+](=O)[O-])cc1)C(Cl)Cl [Cm, Chloramphenicol] | 2 µg/mL (≈ 6.19 µM) | 
CC[C@H]1OC(=O)[C@H](C)[C@@H](O[C@H]2C[C@@](C)(OC)[C@@H](O)[C@H](C)O2)[C@H](C)[C@@H](O[C@@H]2O[C@H](C)C[C@H](N(C)C)[C@H]2O)[C@](C)(O)C[C@@H](C)C(=O)[C@H](C)[C@@H](O)[C@]1(C)O [Em, Erythromycin] | 0.06 to 0.12 µg/mL (≈ 0.0818 to 0.164 µM) | 
[H]/N=C(/N)N[C@H]1[C@H](O)[C@@H](O)[C@H](O[C@@H]2O[C@@H](C)[C@](O)(C=O)[C@H]2O[C@@H]2O[C@@H](CO)[C@H](O)[C@@H](O)[C@@H]2NC)[C@@H](N/C(N)=N\[H])[C@@H]1O [Sm, Streptomycin] | 64 to 128 µg/mL (≈ 110 to 220 µM) | 
CN(C)[C@@H]1C(O)=C(C(N)=O)C(=O)[C@@]2(O)C(O)=C3C(=O)c4c(O)cccc4[C@@](C)(O)[C@H]3C[C@@H]12 [Tc, Tetracycline] | 1 µg/mL (≈ 2.25 µM) | 
CN[C@H](CC(C)C)C(=O)N[C@H]1C(=O)N[C@@H](CC(N)=O)C(=O)N[C@H]2C(=O)N[C@H]3C(=O)N[C@H](C(=O)N[C@H](C(=O)O)c4cc(O)cc(O)c4-c4cc3ccc4O)[C@H](O)c3ccc(c(Cl)c3)Oc3cc2cc(c3O[C@@H]2O[C@H](CO)[C@@H](O)[C@H](O)[C@H]2O[C@H]2C[C@](C)(N)[C@H](O)[C@H](C)O2)Oc2ccc(cc2Cl)[C@H]1O [Va, Vancomycin] |  | 0.5 µg/mL (≈ 0.345 µM)
